In paper PMC5224920, “Assessing the mechanism and therapeutic potential of modulators of the human Mediator complex-associated protein kinases” (eLife, 2016):
Like-named read-outs stand apart in the source and are kept apart here.

Legend:
[1] = test system: LS1034 colorectal cancer xenografts; test: LS1034 colorectal cancer xenograft, tumor growth inhibition; format: in vivo, human
Mouse PK = format: in vivo
Dog PK = format: in vivo; settings: for Dog PK Cl / Dog PK Vd: 0.2mg/kg i.v.
SW837 [2] = test: 24 hour TCF/LEF reporter assay, SW837; format: cell-based; settings: Homo sapiens, SW837, 24 h, read-out: 24 hour TCF/LEF Reporter assay IC50
[3] = test system: SW620 human colorectal cancer xenografts; test: SW620 human colorectal cancer xenograft, tumor growth inhibition; format: in vivo
RKO [4] = test: 96 hour proliferation GI50, RKO; settings: Homo sapiens, read-out: 96 hour GI50
LS174T [5] = test: 96 hour proliferation GI50, LS174T; settings: Homo sapiens, read-out: 96 hour GI50
RKO [6] = test: 24 hour reporter assay, RKO negative control (EEF1A1 promoter-reporter); format: cell-based; settings: Homo sapiens, RKO, read-out: 24 hour TCF/LEF Reporter assay IC50
SW837 [7] = test: 96 hour proliferation GI50, SW837; settings: Homo sapiens, SW837, 96 h, read-out: 96 hour GI50
MV-4-11 AML xenograft = test: MV-4-11 AML subcutaneous xenograft; format: in vivo, human
Beagle dogs = test: 14-day oral tolerability study in dogs; settings: for Target organs: Dog; for Fold of efficacious dose; 10 mg/kg / Fold of efficacious dose; 30 mg/kg: CMPD 4, dog 20 mg/kg
HT29 = test: 96 hour proliferation GI50, HT29; settings: Homo sapiens, HT-29, 96 h, read-out: 96 hour GI50
LS174T [8] = test: 24 hour TCF/LEF reporter assay, LS174T; format: cell-based; settings: Homo sapiens, read-out: 24 hour TCF/LEF Reporter assay IC50
[9] = test system: p-STAT1^SER727 in SW620 tumor xenografts; test: p-STAT1 SER727 level in SW620 xenografts (pharmacodynamics); format: in vivo, human
Experimental: As with 3, 10 mg/kg of 4 inhibited the pathway biomarker for 6 hr, but was not sufficient for antitumor activity in SW620 xenografts (Figure 2A and Figure 2—source data 1).

LS180 [10] = test: 96 hour proliferation GI50, LS180; settings: Homo sapiens, LS180, 96 h, read-out: 96 hour GI50
COLO205 [11] = test: 96 hour proliferation GI50, COLO205; settings: Homo sapiens, COLO 205, 96 h, read-out: 96 hour GI50
p-STAT1^SER727 = test: Inhibition of STAT1 SER727 phosphorylation in cells (target-engagement biomarker)
LS174T [12] = test: LS174T basal WNT-pathway luciferase reporter
Wistar rats = test: 14-day oral tolerability study in rats; format: in vivo; settings: for Target organs: Rat
Text: Animals were culled 24 hr after the last dose. Additional satellite animals for toxicokinetic evaluations were included.

DLD1 [13] = test: 24 hour TCF/LEF reporter assay, DLD1; format: cell-based; settings: Homo sapiens, DLD-1, 24 h, read-out: 24 hour TCF/LEF Reporter assay IC50
SW948 = test: 96 hour proliferation GI50, SW948; settings: Homo sapiens, SW948, 96 h, read-out: 96 hour GI50
LS180 [14] = test: 24 hour TCF/LEF reporter assay, LS180; format: cell-based; settings: Homo sapiens, LS180, 24 h, read-out: 24 hour TCF/LEF Reporter assay IC50
COLO205 [15] = test: 24 hour TCF/LEF reporter assay, COLO205; format: cell-based; settings: Homo sapiens, COLO 205, 24 h, read-out: 24 hour TCF/LEF Reporter assay IC50
LS513 = test: 96 hour proliferation GI50, LS513; settings: Homo sapiens, LS-513, 96 h, read-out: 96 hour GI50
Rat PK = format: in vivo
SW620 = test: 96 hour proliferation GI50, SW620; settings: Homo sapiens, SW-620, 96 h, read-out: 96 hour GI50
DLD1 [16] = test: 96 hour proliferation GI50, DLD1; settings: Homo sapiens, DLD-1, 96 h, read-out: 96 hour GI50
Caco-2 permeability = format: in vitro ADME; settings: human
[17] = low dose 5 mg/kg daily oral for 14 days

In the case of `Cn1ncc2cc(-c3cnc(N)c(Cl)c3N3CCC4(CCNC4=O)CC3)ccc21` [CMPD 3], the TGI ([1]; 30 x 1 (5/7 d) mg/kg x doses/day, day 21, P <0.001) is reported as 55%, the “Mouse PK Cl” value (Mouse PK; 0.2mg/kg i.v.) is reported as 0.61 L/h/kg and the “Mouse PK Vd” value (Mouse PK; 0.2mg/kg i.v.) is reported as 0.63 L/kg. The “Dog PK Cl” value (Dog PK) was 1.07 L/h/kg, the “Dog PK Vd” value (Dog PK) was 1.4 L/kg and the IC50 (SW837 [2]) was 14 nM. The TGI ([3]; 5 x 1 mg/kg x doses/day, day 14, nr = no response, P ns) was “nr”, the TGI ([3]; 10 x 1 mg/kg x doses/day, day 14, P ns) was 33% and the TGI ([3]; 30 x 1 mg/kg x doses/day, day 14, 8 mice, P <0.05) was 48%. For the same compound, the TGI ([3]; 30 x 1b mg/kg x doses/day, day 14, 9 mice, P <0.01) was 44%, the TGI ([3]; 30 x 2 (5/7 d) and x 1 (2/7 d)e mg/kg x doses/day, day 14, P <0.01) was 44% and the GI50 (RKO [4]) was > 30 µM. For the same compound, the GI50 (LS174T [5]) was > 30 µM, the IC50 (RKO [6]) was > 30 µM and the GI50 (SW837 [7]) was 3.11 µM. For the same compound, the TGI (MV-4-11 AML xenograft; 10 mg/kg po qd monotherapy) was 100%, the Target organs (Beagle dogs; [17]) was “Bone marrow, gastrointestinal mucosa, heart, lymphatic system” and the GI50 (HT29) was > 30 µM. For the same compound, the IC50 (LS174T [8]) was 39 nM, the “Time biomarker (p-STAT1^SER727) inhibition maintained” value ([9]; SW620 tumor xenografts, single treatment with 30 mg/kg) was “approximately 10 hr” and the GI50 (LS180 [10]) was 6.67 µM. The GI50 (COLO205 [11]) was > 30 µM, the IC50 (p-STAT1^SER727; read-out: p-STAT1^SER727 IC50, mean ± s.d. or *± range) was 22 ± 12 nM and the IC50 (p-STAT1^SER727; read-out: p-STAT1^SER727 IC50; mean ± s.d. or *± range) was 25.5 ± 12 nM. The IC50 (LS174T [12]; Homo sapiens, LS174T, read-out: LS174T IC50) was 33.3 ± 12.8 nM, the Target organs (Wistar rats; high dose 20 mg/kg daily oral for 14 days (CMPD 3)) was “Bone, bone marrow, heart, liver, lung, lymph nodes, pancreas, reproductive tract (m and f), spleen, thymus” and the Target organs (Wistar rats; [17]) was “Bone, bone, marrow, heart, liver, lung, lymph nodes, pancreas, reproductive tract (m), spleen, thymus”. For the same compound, the Target organs (Wistar rats; mid dose 10 mg/kg daily oral for 14 days (CMPD 3)) was “Bone, bone marrow, heart, liver, lung, lymph nodes, pancreas, reproductive tract (m and f), spleen, thymus”, the IC50 (DLD1 [13]) was 173 nM and the GI50 (SW948) was > 30 µM. The IC50 (LS180 [14]) was 28 nM, the IC50 (COLO205 [15]) was 15 nM and the GI50 (LS513) was > 30 µM. The “Rat PK Cl” value (Rat PK; 0.2mg/kg i.v.) was 1.49 L/h/kg, the “Rat PK Vd” value (Rat PK; 0.2mg/kg i.v.) was 1.99 L/kg and the GI50 (SW620) was 1860 nM. The GI50 (DLD1 [16]) was > 30 µM.

`Cc1n[nH]c2ncc(C(=O)N3CCC[C@H]3c3ccc(Cl)cc3)cc12` [CMPD 4] showed a TGI ([1]; 50 x 2 mg/kg x doses/day, day 22, P ns) of 52%, a TGI ([1]; 100 x 1 mg/kg x doses/day, day 22, P ns) of 30% and an efflux ratio (Caco-2 permeability) of 1.49. The “Mouse PK Cl” value (Mouse PK; 0.2mg/kg i.v.) was 1.37 L/h/kg, the “Mouse PK F” value (Mouse PK; 0.2mg/kg i.v. or 0.5mg/kg p.o.) was 25% and the Vd (Mouse PK; female, NMRI, mouse, in vivo, iv, 0.2mg/kg i.v.) was 0.59 L/kg. For the same compound, the “Dog PK Cl” value (Dog PK) was 1.35 L/h/kg, the “Dog PK Vd” value (Dog PK) was 1.47 L/kg and the “Dog PK F” value (Dog PK; 0.2mg/kg i.v. or 0.5mg/kg p.o.) was 39%. For the same compound, the IC50 (SW837 [2]) was 8 nM, the TGI ([3]; 5 x 2 mg/kg x doses/day, day 13, nr = no response, P ns) was “nr” and the TGI ([3]; 10 x 1 mg/kg x doses/day, day 13, nr = no response, P ns) was “nr”. The TGI ([3]; 50 x 2b mg/kg x doses/day, day 16, P ns) was 51%, the TGI ([3]; 100 x 1 mg/kg x doses/day, day 16, P ns) was 43% and the GI50 (RKO [4]) was > 30 µM. The GI50 (LS174T [5]) was > 30 µM, the IC50 (RKO [6]) was > 30 µM and the GI50 (SW837 [7]) was > 30 µM. For the same compound, the “Target inhibition by p-STAT1^SER727” value (MV-4-11 AML xenograft; 2 hr post-treatment) was “near maximal target inhibition”, the “Fold of efficacious dose; 10 mg/kg” value (Beagle dogs; female) was ~46 and the “Fold of efficacious dose; 30 mg/kg” value (Beagle dogs; female) was ~15. For the same compound, the “Fold of efficacious dose; 10 mg/kg” value (Beagle dogs; male) was ~22, the “Fold of efficacious dose; 30 mg/kg” value (Beagle dogs; male) was ~7 and the Target organs (Beagle dogs; low dose 20 mg/kg daily oral for 14 days) was “Bone marrow, heart, Intestines, lymphatic system”. The GI50 (HT29) was > 30 µM, the IC50 (LS174T [8]) was 31 nM and the “Time pathway biomarker (p-STAT1^SER727) inhibited” value ([9]; SW620 xenografts, 10 mg/kg) was 6 h. For the same compound, the GI50 (LS180 [10]) was > 30 µM, the GI50 (COLO205 [11]) was > 30 µM and the IC50 (p-STAT1^SER727; read-out: p-STAT1^SER727 IC50) was 7.7 ± 2.2 nM. For the same compound, the IC50 (LS174T [12]; Homo sapiens, LS174T, read-out: LS174T IC50, basal WNT-pathway luciferase reporter, mean ± s.d. or *± range) was 29.5 ± 9.5 nM, the IC50 (LS174T [12]; read-out: LS174T IC50, basal WNT-pathway luciferase reporter, mean ± s.d. or *± range) was 36.2 ± 9.5 nM and the “Fold of efficacious dose; 10 mg/kg” value (Wistar rats; CMPD 4, rat 10 mg/kg, female) was ~2.4. The “Fold of efficacious dose; 30 mg/kg” value (Wistar rats; CMPD 4, rat 10 mg/kg, female) was ~0.8, the “Fold of efficacious dose; 10 mg/kg” value (Wistar rats; CMPD 4, rat 10 mg/kg, male) was ~0.9 and the “Fold of efficacious dose; 30 mg/kg” value (Wistar rats; CMPD 4, rat 10 mg/kg, male) was ~0.3. The “Fold of efficacious dose; 10 mg/kg” value (Wistar rats; CMPD 4, rat 20 mg/kg, female) was ~5.7, the “Fold of efficacious dose; 30 mg/kg” value (Wistar rats; CMPD 4, rat 20 mg/kg, female) was ~1.9 and the “Fold of efficacious dose; 10 mg/kg” value (Wistar rats; CMPD 4, rat 20 mg/kg, male) was ~3.9. For the same compound, the “Fold of efficacious dose; 30 mg/kg” value (Wistar rats; CMPD 4, rat 20 mg/kg, male) was ~1.3, the “Fold of efficacious dose; 10 mg/kg” value (Wistar rats; CMPD 4, rat 60 mg/kg, female) was ~23.1 and the “Fold of efficacious dose; 30 mg/kg” value (Wistar rats; CMPD 4, rat 60 mg/kg, female) was ~7.7. The “Fold of efficacious dose; 10 mg/kg” value (Wistar rats; CMPD 4, rat 60 mg/kg, male) was ~10.8, the “Fold of efficacious dose; 30 mg/kg” value (Wistar rats; CMPD 4, rat 60 mg/kg, male) was ~3.6 and the Target organs (Wistar rats; high dose 60 mg/kg daily oral for 14 days) was “Bone, bone marrow, brain, heart, intestines, liver, lung, lymph nodes, mammary gland, pancreas, reproductive tract (m and f), skin, spleen, stomach, thymus”. The Target organs (Wistar rats; low dose 10 mg/kg daily oral for 14 days (CMPD 4)) was “Bone, bone marrow, intestines, liver, lung, lymph nodes, mammary gland, pancreas, reproductive tract (m and f), skin, spleen, stomach, thymus”, the Target organs (Wistar rats; mid dose 20 mg/kg daily oral for 14 days (CMPD 4)) was “Bone, bone marrow, heart, intestines, liver, lung, lymph nodes, mammary gland, pancreas, reproductive tract (m and f), skin, spleen, stomach, thymus” and the IC50 (DLD1 [13]) was 97 nM. The GI50 (SW948) was > 30 µM, the IC50 (LS180 [14]) was 31 nM and the IC50 (COLO205 [15]) was 9 nM. For the same compound, the GI50 (LS513) was > 30 µM, the “Rat PK Vd” value (Rat PK; 0.2mg/kg i.v.) was 1.62 L/kg and the “Rat PK F” value (Rat PK; 0.2mg/kg i.v. or 0.5mg/kg p.o.) was 66%. The clearance (Rat PK; male, Wistar, rat, in vivo, iv, 0.2mg/kg i.v., read-out: Rat PK Cl (converted)) was 25 mL/min/kg, the GI50 (SW620) was > 30000 nM and the GI50 (DLD1 [16]) was > 30 µM.
